Where two headings read alike, the source gives them in different places.
Tests used:
hPIV-1 NI = hPIV-1 NI (Human parainfluenza 1 virus, UniProt P16071); experiment: biochemical
Protocol: IC50 values for a number of compounds of the first aspect were determined by standard assay methods previously described in Guillon, P et al, Nature Communications (2014).

hPIV-3 HN [1] = target: T1, hPIV-3 HN (UniProt P08492); format: biochemical, hPIV-3 (strain C-243); parameters: rows headed: HI Mean IC50; hPIV-3 HN; 3 independent experiments; fold improvement in HI assay; other: versus 6; hPIV-3 HN HI IC50; other: text; other: text, unit given as M
T1 sequence (P08492 1-572): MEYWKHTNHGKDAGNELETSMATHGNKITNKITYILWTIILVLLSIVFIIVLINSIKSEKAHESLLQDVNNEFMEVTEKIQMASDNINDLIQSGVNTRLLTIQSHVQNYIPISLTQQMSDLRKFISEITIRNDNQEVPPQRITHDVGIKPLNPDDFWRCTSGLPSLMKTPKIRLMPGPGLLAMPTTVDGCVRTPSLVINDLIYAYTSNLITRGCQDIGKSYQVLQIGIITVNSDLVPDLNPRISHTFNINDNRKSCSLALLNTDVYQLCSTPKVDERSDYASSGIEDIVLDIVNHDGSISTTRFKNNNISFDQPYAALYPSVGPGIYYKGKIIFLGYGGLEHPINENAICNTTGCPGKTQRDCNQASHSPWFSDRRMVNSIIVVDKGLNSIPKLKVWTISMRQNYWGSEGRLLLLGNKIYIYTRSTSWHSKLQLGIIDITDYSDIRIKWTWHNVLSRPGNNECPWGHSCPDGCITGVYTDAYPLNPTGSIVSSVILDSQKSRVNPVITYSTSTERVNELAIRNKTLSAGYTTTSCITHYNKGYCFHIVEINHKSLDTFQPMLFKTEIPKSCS

hPIV-3 HN [2] = target: T2, hPIV-3 HN (Human parainfluenza 3 virus, UniProt P08492); format: biochemical, hPIV-3 (strain C-243); settings: Table 5; read-out: hPIV-3 NI (IC50 values)
hPIV-3 HN [3] = target: T1, hPIV-3 HN; format: biochemical, hPIV-3 (strain C-243); parameters: rows headed: NI Mean IC50; hPIV-3 HN; 3 independent experiments; Ki; Km value for MUN; other: whole hPIV-3 virus, [I]=0; fold improvement in NI assay; other: versus 6; hPIV-3 HN NI IC50; other: text; other: text, unit given as M
LLC-MK2 cells = experiment: MTT assay for compound cytotoxicity; settings: 48 h, 30 μM, highest concentration tested
Protocol: Infection was performed in duplicate and continued for 1 h at 37° C. with gentle agitation every 15 min. Inocula were removed and replaced with 500 μL/well of each respective 2 μM compound dilution (in EMEMinf).

hPIV-3 HN [4] = target: T2, hPIV-3 HN; format: binding; settings: 20 μM hPIV-3 HN, protein:ligand 1:100
hPIV-3 HN [5] = target: T1, hPIV-3 HN; format: biochemical, hPIV-3 (strain C-243); parameters: rows headed: NI Mean IC50; hPIV-3 HN; 3 independent experiments; Ki; Km value for MUN; other: whole hPIV-3 virus, [I]=0; fold improvement in NI assay; other: versus 6; hPIV-3 HN NI IC50; other: text; other: text, unit given as M; remark: listed apart in the source
hPIV-3 [6] = experiment: Virus growth inhibition assay, titration of progeny virus (focus forming assay) in LLC-MK2 cells; format: cell-based, hPIV-3 (strain C-243)
hPIV-3 [7] = experiment: In situ ELISA virus growth inhibition; format: cell-based, hPIV-3 (strain C-243)
hPIV-3 HN [8] = target: T1, hPIV-3 HN; format: biochemical, hPIV-3 (strain C-243); parameters: rows headed: NI hPIV-3 IC50; settings: read-out: NI hPIV-3 IC50
[9] = Table 2 prints no unit, μM, hPIV-3 HN, 3 independent experiments, read-out: HI Mean IC50
[10] = Table 2 prints no unit, μM, hPIV-3 HN, 3 independent experiments, read-out: NI Mean IC50
[11] = Human respirovirus 3, Table 4, A549 cells, hPIV-3, read-out: Cell-based ELISA IC50

Chain of hPIV-1 NI (P16071 whole entry): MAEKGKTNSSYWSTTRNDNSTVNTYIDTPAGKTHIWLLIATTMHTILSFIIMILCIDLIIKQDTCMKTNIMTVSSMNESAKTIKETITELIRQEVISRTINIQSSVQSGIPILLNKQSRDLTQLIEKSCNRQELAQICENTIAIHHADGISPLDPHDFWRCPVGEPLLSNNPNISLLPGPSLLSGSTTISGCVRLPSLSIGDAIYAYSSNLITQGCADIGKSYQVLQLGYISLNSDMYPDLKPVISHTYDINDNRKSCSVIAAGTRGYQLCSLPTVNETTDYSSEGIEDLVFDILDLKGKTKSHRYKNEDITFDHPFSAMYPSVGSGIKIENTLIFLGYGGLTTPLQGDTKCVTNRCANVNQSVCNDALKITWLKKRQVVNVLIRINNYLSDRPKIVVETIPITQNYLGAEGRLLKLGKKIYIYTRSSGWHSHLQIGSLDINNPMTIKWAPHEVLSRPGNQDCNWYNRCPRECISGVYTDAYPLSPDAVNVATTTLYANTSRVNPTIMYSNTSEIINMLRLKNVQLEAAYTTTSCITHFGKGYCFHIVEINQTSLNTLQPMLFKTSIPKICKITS

## COCc1cn([C@H]2C=C(C(=O)O)O[C@@H]([C@H](O)[C@H](O)CO)[C@@H]2NC(=O)C(C)C)nn1 [Compound 9, Sodium 2,6-anhydro-3,4,5-trideoxy-5-isobutyramido-4-(4-methoxymethyl-[1,2,3,]triazol-1-yl)-D-glycero-D-galacto-non-2-enonate]
hPIV-1 NI
  IC50: 0.489 µM
hPIV-3 HN [1]; [9]
  IC50: 13.8 µM
hPIV-3 HN [1]; read-out: hPIV-3 HN HI IC50
  IC50: 13.8 µM
hPIV-3 HN [2]
  IC50: 13.1 µM
hPIV-3 HN [3]; [10]
  IC50: 14.2 µM
hPIV-3 HN [3]; read-out: hPIV-3 HN NI IC50
  IC50: 14.2 µM

## CC(=O)NC1C(N=[N+]=[N-])C=C(C(=O)O)OC1C(O)C(O)CO (stereo not shown) [Compound 3, 4-azido-4-deoxy-Neu5Ac2en, reference compound]
hPIV-3 HN [1]; read-out: hPIV-3 HN HI IC50
  IC50: 210 µM
hPIV-3 HN [3]; [10]
  IC50: 138 µM

## CC(C)C(=O)NC1C(O)C=C(C(=O)O)OC1C(O)C(O)CO (stereo not shown) [Compound 5, reference compound]
hPIV-3 HN [1]; [9]
  IC50: 358 µM
hPIV-3 HN [3]; [10]
  IC50: 188 µM

## CC(=O)N[C@H]1[C@H]([C@H](O)[C@H](O)CO)OC(C(=O)[O-])=C[C@@H]1n1cc(-c2ccccc2)nn1.[Na+] [Compound 8, Sodium 5-acetamido-2,6-anhydro-3,4,5-trideoxy-4-(4-phenyl-[1,2,3,]triazol-1-yl)-D-glycero-D-galacto-non-2-enonate]
LLC-MK2 cells
  Cytotoxic effect (MTT): No cytotoxic effect
hPIV-1 NI
  IC50: 168 µM
hPIV-3 HN [1]; [9]
  IC50: 4.58 µM
hPIV-3 HN [1]; read-out: hPIV-3 HN HI IC50
  IC50: 4.6 µM
hPIV-3 HN [2]
  IC50: 5.85 µM
hPIV-3 HN [4]; reference signal
  Relative STD NMR effect, ArH4′: 100%
hPIV-3 HN [4]; relative to ArH4′
  Relative STD NMR effect, ArH2′ ArH6′: 92%
  Relative STD NMR effect, ArH3′ ArH5′: 100%
  Relative STD NMR effect, H3: 85%
  Relative STD NMR effect, H4: 59%
  Relative STD NMR effect, H5: 50%
  Relative STD NMR effect, H6: 49%
  Relative STD NMR effect, H7: 30%
  Relative STD NMR effect, H8: 30%
  Relative STD NMR effect, H9: 12%
  Relative STD NMR effect, H9′: 18%
  Relative STD NMR effect, NHAc: 41%
  Relative STD NMR effect, Triazole CH: 63%
hPIV-3 HN [3]; [10]
  IC50: 6.51 µM
hPIV-3 HN [3]; read-out: hPIV-3 HN NI IC50
  IC50: 6.5 µM

## CC(=O)N[C@H]1[C@H]([C@H](O)[C@H](O)CO)O[C@@](Oc2ccc3c(C)cc(=O)oc3c2)(C(=O)O)C[C@@H]1O [MUN, 2′-(4-methylumbelliferyl) […]-D-N-acetylneuraminide]
hPIV-3 HN [5]; read-out: Km value for MUN
  Km: 5.1 mM

## CC(C)C(=O)N[C@H]1[C@H]([C@H](O)[C@H](O)CO)OC(C(=O)O)=C[C@@H]1N=[N+]=[N-] [Compound 6, BCX 2798, reference compound]
hPIV-3 HN [5]
  Ki: 16 µM
hPIV-3 [6]; 2 μM inhibitor, 48 h, LLC-MK2 cells, low MOI
  Virus growth inhibition (reduction in virus titre): 14%
hPIV-3 [7]; LLC-MK2, A549 and NHBE cells, read-out: Virus growth inhibition IC50, range over all three cell lines
  IC50: 54.6 to 131 µM
hPIV-3 [7]; LLC-MK2 cells, read-out: Virus growth IC50 (in situ ELISA)
  IC50: 54.6 ± 3.8 µM
hPIV-3 [7]; NHBE cells, read-out: Virus growth IC50 (in situ ELISA)
  IC50: 79.3 ± 1 µM
hPIV-3 [7]; Table 4, A549 cells, hPIV-3, read-out: Cell-based ELISA IC50
  IC50: 130 µM
hPIV-3 HN [1]; read-out: HI Mean IC50
  IC50: 16.1 µM
hPIV-3 HN [1]; read-out: hPIV-3 HN HI IC50
  IC50: 16.1 µM
hPIV-3 HN [8]
  IC50: 18 µM
hPIV-3 HN [3]; read-out: NI Mean IC50
  IC50: 21.5 µM
hPIV-3 HN [3]; read-out: hPIV-3 HN NI IC50
  IC50: 21.5 µM

## COCc1cn(C2C(NC(=O)C(C)C)C(C(O)C(O)CO)OC(F)(C(=O)O)C2F)nn1 (stereo not shown) [I-104]
hPIV-3 [7]; [11]
  IC50: 25 µM
hPIV-3 HN [8]; Table 4
  IC50: 4 µM

## CC(C)C(=O)N[C@H]1[C@H]([C@H](O)[C@H](O)CO)OC(C(=O)[O-])=C[C@@H]1n1cc(-c2ccccc2)nn1.[Na+] [Compound 10, Sodium 2,6-anhydro-3,4,5-trideoxy-5-isobutyramido-4-(4-phenyl-[1,2,3,]triazol-1-yl)-D-glycero-D-galacto-non-2-enonate]
hPIV-3 [6]; Human respirovirus 3, LLC-MK2, 48 h, read-out: Virus growth inhibition (reduction in virus titre)
  inhibition at 2 µM: 94%
LLC-MK2 cells
  Cytotoxic effect (MTT): No cytotoxic effect
hPIV-3 [7]; Human respirovirus 3, A549, read-out: Virus growth IC50 (in situ ELISA)
  IC50: 10.3 ± 0.3 µM
hPIV-3 [7]; Human respirovirus 3, LLC-MK2, read-out: Virus growth IC50 (in situ ELISA)
  IC50: 2.1 ± 0.6 µM
hPIV-3 [7]; Human respirovirus 3, NHBE, read-out: Virus growth IC50 (in situ ELISA)
  IC50: 13.9 ± 0.7 µM
hPIV-3 [7]; Human respirovirus 3, read-out: Virus growth inhibition IC50, range over all three cell lines
  IC50: 2.1 to 13.9 µM
hPIV-3 [7]; LLC-MK2 cells, versus 6
  times more potent than 6, cell-based assay: ~26 times

## COCc1cn([C@H]2C=C(C(=O)O)O[C@@H]([C@H](O)[C@H](O)CO)[C@@H]2NC(C)=O)nn1 [Compound 7, Sodium 5-acetamido-2,6-anhydro-3,4,5-trideoxy-4-(4-methoxymethyl-[1,2,3,]triazol-1-yl)-D-glycero-D-galacto-non-2-enonate]
hPIV-1 NI
  IC50: 19.8 µM
hPIV-3 HN [1]; [9]
  IC50: 312 µM
hPIV-3 HN [1]; read-out: hPIV-3 HN HI IC50
  IC50: 313 µM
hPIV-3 HN [2]
  IC50: 148 µM
hPIV-3 HN [3]; [10]
  IC50: 154 µM
hPIV-3 HN [3]; read-out: hPIV-3 HN NI IC50
  IC50: 154 µM

## CC(C)C(=O)NC1C(N=[N+]=[N-])C(F)C(F)(C(=O)O)OC1[C@H](O)[C@H](O)CO (stereo partly shown) [I-70]
hPIV-3 [7]; [11]
  IC50: 14 µM
hPIV-3 HN [8]; Table 4
  IC50: 6 µM

## CC(C)C(=O)NC1C([C@H](O)[C@H](O)CO)OC(F)(C(=O)O)C(F)C1n1cc(-c2ccccc2)nn1 (stereo partly shown) [I-79]
hPIV-3 [7]; [11]
  IC50: 45 µM
hPIV-3 HN [8]; Table 4
  IC50: 63 µM
